Measurements: patent US8420657B2 (Novartis AG, priority 2008, dated 2013)

Key:
[1] = system: JAK2-dependent nuclear translocation of STAT5-GFP in U-2 OS osteosarcoma cells; test: STAT5 nuclear translocation assay (Cellomics), rhEpo stimulated U-2 OS STAT5-GFP cells; type: cell-based; conditions: Homo sapiens, U2OS; STAT5 translocation pathway
Description: The medium-throughput (96-well format) cellular automated fluorescence microscopy Cellomics assay can be routinely used to assess the functional activation of Janus Kinases (JAKs), based on the nuclear translocation of their substrate, Signal Transducer and Activator of Transcription (STAT). Nuclear translocation can be monitored either in HT1080 fibrosarcoma cells stably transfected with STAT1 fused to Green Fluorescence Protein (GFP) or in U-2 OS osteosarcoma cells stably transfected with STAT5 fused to Green Fluorescence Protein (GFP). Stimulation of HT1080 cells with interferon-γ (IFN-γ) results in JAK1/JAK2-dependent nuclear translocation of STAT1-GFP, whereas stimulation of U-2 OS cells with recombinant human erythropoietin (rhEpo) results in JAK2-dependent nuclear translocation of STAT5-GFP, both of which can be quantified using the Cellomics Cyto/NucTrans software package. This assay may be used to provide an assessment of the nuclear-cytoplasmic differential (NCD) of STAT-GFP using Hoechst dye to define the boundaries of the nucleus.
U-2 OS osteosarcoma cells may be obtained from ATCC and can be cultured in standard RPMI medium supplemented with 10% FCS and 2 mM L-glutamine. Cells can be stably transfected with STAT5a-GFP using Lipofectamine following the manufacturers' protocol. 24 hours after transfection the medium can be replaced and selected in 400 μg/ml Geneticin. Subsequently, cells can be stably transfected with EpoR using Lipofectamine following the manufacturers' protocol. 24 hours after transfection the medium can be replaced and cells selected in 100 μg/ml Hygromycin B.
Compounds can be dissolved in DMSO to a final stock concentration of 10 mM and stored as aliquots at 4° C. Compounds may be pre-diluted in 100% DMSO at 10 mM, 3 mM 1 mM, 0.3 mM, 0.1 mM, 0.03 mM, 0.01 mM and 0.003 mM. Subsequently, compounds may be diluted in medium and added in 50 μl to the cells. The final compound concentrations tested may be 10 μM, 3 μM 1 μM, 0.3 μM, 0.1 μM, 0.03 μM, 0.01 μM and 0.003 μM and the final DMSO concentration can be 0.1%.
U-2 OS may be seeded at a cell density of 12,000 cells per well in clear-bottom black 96-well Packard View-Plates™. The following day, medium can be removed and replaced with medium containing either the vehicle (DMSO) or increasing concentrations of test compounds for 30 minutes at 37° C. Cells can then be stimulated for 1 hour by adding 10 μl per well of 50 U/ml rhEpo to obtain 5 U/ml of rhEpo as the final concentration. Following treatments, cells can fixed and processed as described above.
The plates can be read on a Cellomics® ArrayscanII automated fluorescence microscope plate reader equipped with a Mercury-Xenon white light illumination source and a Zeiss Axiovert inverted microscope, using the XF100 dichroic/emission filter cube and matching excitation filters, 10× magnification, and a 0.3 numerical aperture objective. Image acquisition and analysis can be performed using a customized protocol based on the ‘NuclearTranslocation’ Bioapplication. For each well, multiple images (fields) can be acquired until a minimum of 1000 cells are counted using two 2 channels: Channel 1 (Hoechst)=focus+nuclear mask, Channel 2 (GFP)=signal quantification in mask areas as outlined below. Nuclei may be first identified based on the Hoechst staining and a mask generated for each nucleus that then serves as a template to generate a circle (eroded inwards by 1 pixel) and a 3 pixel-wide collar-like ring (off-set outwards by 1 pixel), in which the nuclear and cytoplasmic intensity of GFP, respectively, are quantified in the corresponding channel. High content analysis yields numerous measurements per cell and the GFP intensity differential between the nuclear and the cytoplasmic masks may be chosen as a measure of sub-cellular STAT-GFP relocation. The resulting values may be averaged for all cells in the well to return a single measurement plus standard deviation. […]

GST-JAK2(808-1132) = molecular target: T1, GST-JAK2(808-1132) (Homo sapiens, UniProt O60674); test: JAK2 kinase assay (Caliper mobility shift, LabChip 3000); type: biochemical
T1 construct: GST-JAK2(808-1132); purchased Invitrogen (Carlsbad, USA) #4288
T1 sequence (O60674 808-1132): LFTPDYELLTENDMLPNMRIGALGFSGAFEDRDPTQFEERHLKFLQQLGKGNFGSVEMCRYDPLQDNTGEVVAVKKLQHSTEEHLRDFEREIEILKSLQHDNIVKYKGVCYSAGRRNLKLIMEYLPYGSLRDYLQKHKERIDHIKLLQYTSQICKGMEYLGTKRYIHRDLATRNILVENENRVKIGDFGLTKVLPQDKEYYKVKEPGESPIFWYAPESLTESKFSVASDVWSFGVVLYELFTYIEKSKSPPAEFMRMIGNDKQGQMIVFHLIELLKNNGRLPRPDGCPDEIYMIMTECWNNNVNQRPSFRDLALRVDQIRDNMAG
How it was run: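 Eight-point compound series (final 10–0.003 μM) tested on purchased GST-JAK2 kinase domain (808-1132). Peptide FITC-JAK3tide plus ATP reacted 60 min, 30 °C, then quenched with EDTA; turnover from charge-based separation of substrate and product.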

SMILES | IC50 [1] [nM] | IC50 (GST-JAK2(808-1132)) [nM]
OC1CCN(c2ccc(Nc3ncc4ccn(-c5cc(F)c(CN6CCOCC6)c(F)c5)c4n3)cn2)C1 (racemic) [Example 347, 1-{5-[7-(3,5-Difluoro-4-morpholin-4-ylmethyl-phenyl)-7H-pyrrolo[2,3-d]pyrimidin-2-ylamino]-pyridin-2-yl}-pyrrolidin-3-ol] | 13.3 | ≤ 3
Fc1cc(-n2ccc3cnc(Nc4ccc(C5CNCCO5)cc4)nc32)cc(F)c1CN1CCOCC1 (racemic) [Example 354, [7-(3,5-Difluoro-4-morpholin-4-ylmethyl-phenyl)-7H-pyrrolo[2,3-d]pyrimidin-2-yl]-(4-morpholin-2-yl-phenyl)-amine] | 1.3 | ≤ 3
C[C@@H]1CN[C@@H](C)CN1c1ccc(Nc2ncc3ccn(-c4ccc(S(=O)(=O)NC(C)(C)C)cc4)c3n2)cn1 (racemic) [Example 356, N-tert-Butyl-4-{2-[6-((2R,5S)-2,5-dimethyl-piperazin-1-yl)-pyridin-3-ylamino]-pyrrolo[2,3-d]pyrimidin-7-yl}-benzenesulfonamide] | 5.9 | 3.2
Fc1cc(-n2ccc3cnc(Nc4ccnc(N5CCNC(C(F)(F)F)C5)c4)nc32)cc(F)c1CN1CCOCC1 (racemic) [Example 364, [7-(3,5-Difluoro-4-morpholin-4-ylmethyl-phenyl)-7H-pyrrolo[2,3-d]pyrimidin-2-yl]-[2-(3-trifluoromethyl-piperazin-1-yl)-pyridin-4-yl]-amine] | 2.8 | ≤ 3
Cc1ccc(Nc2ncc3ccn(-c4cc(F)c(CN5CCOCC5)c(F)c4)c3n2)cc1CN1C[C@H](C)NC[C@H]1C (racemic) [Example 378, [7-(3,5-Difluoro-4-morpholin-4-ylmethyl-phenyl)-7H-pyrrolo[2,3-d]pyrimidin-2-yl]-[3-((2R,5S)-2,5-dimethyl-piperazin-1-ylmethyl)-4-methyl-phenyl]-amine] | 45 | 13
Cc1ccc(Nc2ncc3ccn(-c4ccc(C(=O)N5CCS(=O)(=O)CC5)c(F)c4)c3n2)cc1CN1CCNC(C(F)(F)F)C1 (racemic) [Example 403] | 22.5 | ≤ 3
Cc1ccc(Nc2ncc3ccn(-c4cc(F)c(CN5CCOCC5)c(F)c4)c3n2)cc1CN1CCNC(C(F)(F)F)C1 (racemic) [Example 404, [7-(3,5-Difluoro-4-morpholin-4-ylmethyl-phenyl)-7H-pyrrolo[2,3-d]pyrimidin-2-yl]-[4-methyl-3-(3-trifluoromethyl-piperazin-1-ylmethyl)-phenyl]-amine] | 141 | 5.6
Fc1cc(-n2ccc3cnc(Nc4ccnc(CN5CCNC(C(F)(F)F)C5)c4)nc32)cc(F)c1CN1CCOCC1 (racemic) [Example 408, [7-(3,5-Difluoro-4-morpholin-4-ylmethyl-phenyl)-7H-pyrrolo[2,3-d]pyrimidin-2-yl]-[2-(3-trifluoromethyl-piperazin-1-ylmethyl)-pyridin-4-yl]-amine] | 9.2 | ≤ 3
Cc1ccc(Nc2ncc3ccn(-c4cc(F)c(CN5CCOCC5)c(F)c4)c3n2)cc1CN1CCC(O)C1 (racemic) [Example 411, 1-{5-[7-(3,5-Difluoro-4-morpholin-4-ylmethyl-phenyl)-7H-pyrrolo[2,3-d]pyrimidin-2-ylamino]-2-methyl-benzyl}-pyrrolidin-3-ol] | 2.6 | ≤ 3
COC1CCN(Cc2cc(Nc3ncc4ccn(-c5cc(F)c(CN6CCOCC6)c(F)c5)c4n3)ccc2C)C1 (racemic) [Example 417, [7-(3,5-Difluoro-4-morpholin-4-ylmethyl-phenyl)-7H-pyrrolo[2,3-d]pyrimidin-2-l]-[3-(3-methoxy-pyrrolidin-1-ylmethyl)-4-methyl-phenyl]-amine] | 5 | ≤ 3
Cc1ccc(Nc2ncc3ccn(-c4cc(F)c(CN5CCS(=O)(=O)CC5)c(F)c4)c3n2)cc1CN1CCC(O)C1 (racemic) [Example 425, 1-(5-{7-[4-(1,1-Dioxido-thiomorpholin-4-ylmethyl)-3,5-difluoro-phenyl]-7H-pyrrolo[2,3-d]pyrimidin-2-ylamino}-2-methyl-benzyl)-pyrrolidin-3-ol] | 3.6 | ≤ 3
COC1CCN(Cc2cc(Nc3ncc4ccn(-c5cc(F)c(CN6CCOCC6)c(F)c5)c4n3)ccn2)C1 (racemic) [Example 426, [7-(3,5-Difluoro-4-morpholin-4-ylmethyl-phenyl)-7H-pyrrolo[2,3-d]pyrimidin-2-yl]-[2-(3-methoxy-pyrrolidin-1-ylmethyl)-pyridin-4-yl]-amine] | 18.3 | ≤ 3
CN(C)C1CCN(Cc2cc(Nc3ncc4ccn(-c5cc(F)c(CN6CCOCC6)c(F)c5)c4n3)ccn2)C1 (racemic) [Example 427, [7-(3,5-Difluoro-4-morpholin-4-ylmethyl-phenyl)-7H-pyrrolo[2,3-d]pyrimidin-2-yl]-[2-(3-dimethylamino-pyrrolidin-1-ylmethyl)-pyridin-4-yl]-amine] | 33.2 | ≤ 3
Cc1ccc(Nc2ncc3ccn(-c4cc(F)c(CN5CCOCC5)c(F)c4)c3n2)cc1CN1CCC(N(C)C)C1 (racemic) [Example 434, [7-(3,5-Difluoro-4-morpholin-4-ylmethyl-phenyl)-7H-pyrrolo[2,3-d]pyrimidin-2-yl]-[3-(3-dimethylamino-pyrrolidin-1-ylmethyl)-4-methyl-phenyl]-amine] | 31.5 | ≤ 3
Cc1ccc(Nc2ncc3ccn(-c4cc(F)c(CN5CCS(=O)(=O)CC5)c(F)c4)c3n2)cc1CN1CCC(N(C)C)C1 (racemic) [Example 435, [3-(3-Dimethylamino-pyrrolidin-1-ylmethyl)-4-methyl-phenyl]-{7-[4-(1,1-dioxido-thiomorpholin-4-ylmethyl)-3,5-difluoro-phenyl]-7H-pyrrolo[2,3-d]pyrimidin-2-yl}-amine] | 3.4 | ≤ 3
Fc1cc(-n2ccc3cnc(Nc4ccc(N5CCNC(C(F)(F)F)C5)nc4)nc32)cc(F)c1CN1CCOCC1 (racemic) [Example 469, [7-(3,5-Difluoro-4-morpholin-4-ylmethyl-phenyl)-7H-pyrrolo[2,3-d]pyrimidin-2-yl]-[6-(3-trifluoromethyl-piperazin-1-yl)-pyridin-3-yl]-amine] | 25 | ≤ 3
Fc1cc(-n2ccc3cnc(Nc4ccc(CN5CCNC(C(F)(F)F)C5)cc4)nc32)cc(F)c1CN1CCOCC1 (racemic) [Example 476, [7-(3,5-Difluoro-4-morpholin-4-ylmethyl-phenyl)-7H-pyrrolo[2,3-d]pyrimidin-2-yl]-[4-(3-trifluoromethyl-piperazin-1-ylmethyl)-phenyl]-amine] | 34.5 | ≤ 3
COC1CCN(Cc2ccc(Nc3ncc4ccn(-c5cc(F)c(CN6CCOCC6)c(F)c5)c4n3)cc2)C1 (racemic) [Example 506, [7-(3,5-Difluoro-4-morpholin-4-ylmethyl-phenyl)-7H-pyrrolo[2,3-d]pyrimidin-2-yl]-[4-(3-methoxy-pyrrolidin-1-ylmethyl)-phenyl]-amine] | 38 | ≤ 3
Fc1cc(-n2ccc3cnc(Nc4ccc(OC5CCNC5)nc4)nc32)cc(F)c1CN1CCOCC1 (racemic) [Example 519, [7-(3,5-Difluoro-4-morpholin-4-ylmethyl-phenyl)-7H-pyrrolo[2,3-d]pyrimidin-2-yl]-[6-(pyrrolidin-3-yloxy)-pyridin-3-yl]-amine] | 60.5 | 3.6
